Laboratory results: US8648094B2, “IAP BIR domain binding compounds” (Pharmascience, Inc., priority 2006, dated 2014)

Key:
[1] = test system: MDA-MB-231 cells; assay: Survival MTT assay; assay type: cell-based; details: Homo sapiens, 72 hours, read-out: MDA-MB231 EC50
Method: (§1) One day prior the treatment with compound, 2000 to 4000 cells per well were plated in a tissue culture treated 96 well format dish with 100 uL of media and incubated at 37° C., 5% CO2. On the day of compound treatment, compounds were diluted with cell culture media to a working stock concentration of 2×. 100 ul of diluted compound were then added to each well. The treated plate was incubated for 72 hours at 37° C., 5% CO2. Upon incubation, the cell viability was assessed as follows; 20 uL of MTT reagent (5 mg/mL) were added per well to cell plate. The plate was incubated for 2 hrs at 37° C. in presence of 5% CO2. The supernatant was then removed from the plate and 100 uL of isopropanol was added. The absorbance was measured in a TECAN spectrophotometer at 570 nm. The percentage of viability was expressed in percentage of the signal obtained with non treated cells.

[2] = test system: SKOV-3 cells; assay: Survival MTT assay; assay type: cell-based; details: Homo sapiens, SK-OV-3, 72 hours
Method: as §1

[3] = test system: HCT116 colorectal cells; assay: Potentiation of TRAIL efficacy in survival assay; assay type: cell-based, human; details: 10 nM of compound
Method: Survival assays were preformed on the following transformed human cancer cell lines, MDA-MB-231, SKOV-3, H460, PC3, HCT-116, and SW480 cells. Cells were seeded in 96 well plates at a respective density of 5000 and 2000 cells per well and incubated at 37° C. in presence of 5% CO2 for 24 hours. Selected compounds were diluted into the media at various concentration ranging from 0.00001 uM up to 100 uM. Diluted compounds were added to the culture media. For the MDA-MB-231 SKOV3, H460, PC3, HCT-116, and SW480 cells, the compounds were added either alone or in presence of 1-3 ng/ml of TRAIL. After 48-72 hours cellular viability was evaluated by MTS based assays. A solution of [3-(4,5-dimethylthiazol-2-yl)-5-(3-carboxymethoxyphenyl)-2-(4-sulfophenyl)-2H-tetrazolium, inner salt; MTS] was added onto cells for a period of 1 to 4 hours. Upon incubation the amount of converted MTS was evaluated using a Tecan spectrophotometer set at 570 nm.

[4] = target: T1, c-IAP1 (Homo sapiens, UniProt Q13490); assay: Detection of c-IAP1 in cells by western blotting; assay type: cell-based; details: HCT116 cells, overnight treatment
T1 construct: endogenous in cells; host or cells: HCT116
Method: Detection of cell expressed XIAP and PARP were done by western blotting. Cells were plated at 300 000 cells/well in a 60 mm wells (6 wells plate dish). The next day the cells were treated with selected compound at the indicated concentration. […] The resulting pellet was rinsed twice with cold TBS. The final washed pellet of cells was the lysed with 250 ul Lysis buffer (NP-40, glycerol, 1% of a protease inhibitor cocktail (Sigma)), placed at 4° C. for 25 min with gentle shaking. The cells extract was centrifuged at 4° C. for 10 min at 10 000 rpm. Both the supernatant and the pellet were kept for western blotting analysis as described below. From the supernatant, the protein content was evaluated and about 50 ug of protein was fractionated onto a 10% SDS-PAGE. Pellets were washed with the lysis buffer and re-suspend into 50 ul of Lamelli buffer 1×, boiled and fractionated on SDS-PAGE. Upon electrophoresis each gel was electro-transferred onto a nitrocellulose membrane at 0.6 A for 2 hours. Membrane non-specific sites were blocked for 1 hours with 5% Skim milk in TBST (TBS containing 0.1% (v/v) Tween-20) at RT. For protein immuno-detection, membranes were incubated overnight with primary antibodies raised against various IAPs or caspase-3 or caspase-9 primary antibodies were incubated at 4° C. with shaking at dilutions as follows:
Upon overnight incubation, the membranes received three washes of 15 min in TBST then were incubated for 1 hour at room temperature in the presence of a secondary antibody coupled with HRP-enzyme (Chemicon) and diluted at 1/5 000. Upon incubation each membrane were washed three times with TBST and the immunoreactive bands were detected by addition of a luminescent substrate (ECL kit Amersham) and capture of signal on a X-RAY film for various time of exposure.

[5] = test system: selected cell lines; assay: Hollow fiber in vivo model; details: compared to fibers from vehicle treated control mice
Method: At day 1, selected cell lines are cultured and the fiber filled at a cell density of about 40,000 cells/fiber. At the day of operation (day 4), three fibers are implanted sub-cutaneous into 28-35 Nu/Nu CD-1 male mice. On day 5, mice start to receive daily injection via sub-cutaneous route of control vehicle or vehicle containing the selected compound at the appropriate concentration and/or injection of cytotoxic agent via intra-peritoneal route. Upon 4 days of consecutive treatments, the animals are sacrificed, each fiber is removed and the metabolic viability of the remaining cells determined by MTT assay. Efficacy of the compound is define as the difference between the vehicle-treated animal and the animal treated with the compound alone or the compound given in combination of the cytotoxic agent

[6] = test system: A2780S ovarian cells; assay: Potentiation of TRAIL efficacy in survival assay; assay type: cell-based; details: 10 nM of compound

T1 sequence (Q13490 whole entry): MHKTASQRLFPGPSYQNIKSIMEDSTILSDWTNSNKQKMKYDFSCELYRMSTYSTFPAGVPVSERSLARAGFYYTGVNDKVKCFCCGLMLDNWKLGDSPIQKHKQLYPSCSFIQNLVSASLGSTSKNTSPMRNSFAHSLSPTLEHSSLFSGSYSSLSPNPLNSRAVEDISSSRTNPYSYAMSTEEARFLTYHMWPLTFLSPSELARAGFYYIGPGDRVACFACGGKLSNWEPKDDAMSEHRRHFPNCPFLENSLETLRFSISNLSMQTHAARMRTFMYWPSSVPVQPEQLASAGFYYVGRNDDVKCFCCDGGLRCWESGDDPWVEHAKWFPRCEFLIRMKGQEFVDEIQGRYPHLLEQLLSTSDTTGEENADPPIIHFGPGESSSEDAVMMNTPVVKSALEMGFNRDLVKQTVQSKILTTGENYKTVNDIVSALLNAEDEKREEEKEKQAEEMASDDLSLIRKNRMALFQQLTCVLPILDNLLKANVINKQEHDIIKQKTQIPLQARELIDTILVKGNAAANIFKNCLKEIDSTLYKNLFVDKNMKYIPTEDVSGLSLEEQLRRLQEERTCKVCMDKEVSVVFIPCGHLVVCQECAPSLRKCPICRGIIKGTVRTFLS

Row | c-IAP1 levels [4] | Structure (SMILES) | EC50 [1] | EC50 [2] | other results
1 |  | CN[C@@H](C)C(=O)N[C@H](C(=O)N1CCC[C@H]1CN(CCc1ccccc1)C(=O)Nc1ccc(NC(=O)N(CCc2ccccc2)C[C@@H]2CCCN2C(=O)[C@@H](NC(=O)[C@H](C)NC)C(C)(C)C)cc1)C(C)(C)C [Compound 20] | < 10 nM | 10 to 25 nM | 
2 |  | CN[C@@H](C)C(=O)N[C@H](C(=O)N1CCC[C@H]1CN(C[C@H](C)c1ccccc1)C(=O)CCCCCCCCC(=O)N(C[C@@H]1CCCN1C(=O)[C@@H](NC(=O)[C@H](C)NC)C(C)(C)C)C[C@H](C)c1ccccc1)C(C)(C)C [Compound 21] | < 10 nM | < 10 nM | 
3 |  | CN[C@@H](C)C(=O)N[C@H](C(=O)N1CCC[C@H]1CN(CCc1ccccc1)C(=O)c1ccc(C(=O)N(CCc2ccccc2)C[C@@H]2CCCN2C(=O)[C@@H](NC(=O)[C@H](C)NC)C(C)(C)C)s1)C(C)(C)C [Compound 26] | < 10 nM | 10 to 25 nM | 
4 |  | CN[C@@H](C)C(=O)N[C@H](C(=O)N1CCC[C@H]1CN(CCc1ccc(F)cc1)C(=O)CCCCCCCCC(=O)N(CCc1ccc(F)cc1)C[C@@H]1CCCN1C(=O)[C@@H](NC(=O)[C@H](C)NC)C(C)(C)C)C(C)(C)C [Compound 29] | < 10 nM | 10 to 25 nM | 
5 |  | CN[C@@H](C)C(=O)N[C@H](C(=O)N1CCC[C@H]1CN(CCc1ccccc1)C(=O)CNC(=O)c1ccc(C(=O)NCC(=O)N(CCc2ccccc2)C[C@@H]2CCCN2C(=O)[C@@H](NC(=O)[C@H](C)NC)C(C)(C)C)cc1)C(C)(C)C [Compound 35] | < 10 nM | < 10 nM | potentiated TRAIL efficacy [6]: approximately 2 logs
6 | reduced | CN[C@@H](C)C(=O)N[C@H](C(=O)N1CCC[C@H]1CN(CCCCc1ccccc1)C(=O)CCCCCCCCC(=O)N(CCCCc1ccccc1)C[C@@H]1CCCN1C(=O)[C@@H](NC(=O)[C@H](C)NC)C(C)(C)C)C(C)(C)C [Compound 40] |  |  | 
7 | reduced | CN[C@@H](C)C(=O)N[C@H](C(=O)N1CCC[C@H]1CN(CCc1ccccc1)C(=O)CNC(=O)c1cccc(C(=O)NCC(=O)N(CCc2ccccc2)C[C@@H]2CCCN2C(=O)[C@@H](NC(=O)[C@H](C)NC)C(C)(C)C)c1)C(C)(C)C [Compound 44] |  | < 10 nM | 
8 | reduced | CN[C@@H](C)C(=O)N[C@H](C(=O)N1CCC[C@H]1CN(CCc1ccccc1)C(=O)CNC(=O)c1ccc(-c2ccc(C(=O)NCC(=O)N(CCc3ccccc3)C[C@@H]3CCCN3C(=O)[C@@H](NC(=O)[C@H](C)NC)C(C)(C)C)cc2)cc1)C(C)(C)C [Compound 45] |  | < 10 nM | 
9 |  | CN[C@@H](C)C(=O)N[C@H](C(=O)N1CCC[C@H]1CN(CCc1ccccc1)C(=O)c1ccc2cc(C(=O)N(CCc3ccccc3)C[C@@H]3CCCN3C(=O)[C@@H](NC(=O)[C@H](C)NC)C(C)(C)C)ccc2c1)C(C)(C)C [Compound 56] |  | < 10 nM | decrease in MTT signal in fibers from treated mice [5]: 70%
10 | reduced | CN[C@@H](C)C(=O)N[C@H](C(=O)N1CCC[C@H]1CN(CCc1ccc(C(F)(F)F)cc1)C(=O)CCCCCCCCC(=O)N(CCc1ccc(C(F)(F)F)cc1)C[C@@H]1CCCN1C(=O)[C@@H](NC(=O)[C@H](C)NC)C(C)(C)C)C(C)(C)C [Compound 67] |  |  | 
11 | reduced | CN[C@@H](C)C(=O)N[C@H](C(=O)N1CCC[C@H]1CN(CCc1ccccc1)C(=O)CCNC(=O)c1ccc(C(=O)NCCC(=O)N(CCc2ccccc2)C[C@@H]2CCCN2C(=O)[C@@H](NC(=O)[C@H](C)NC)C(C)(C)C)cc1)C(C)(C)C [Compound 91] |  | 10 to 25 nM | 
12 | reduced | CN[C@@H](C)C(=O)N[C@H](C(=O)N1CCC[C@H]1CN(Cc1cccc(C(F)(F)F)c1)C(=O)CCCCCCCCC(=O)N(Cc1cccc(C(F)(F)F)c1)C[C@@H]1CCCN1C(=O)[C@@H](NC(=O)[C@H](C)NC)C(C)(C)C)C(C)(C)C [Compound 100] |  |  | 

Row | Structure (SMILES) | c-IAP1 levels [4] | EC50 [1] | EC50 [2] | other results
13 | CN[C@@H](C)C(=O)N[C@H](C(=O)N1CCC[C@H]1CN(CCc1ccccc1)C(=O)CNC(=O)C(=O)NCC(=O)N(CCc1ccccc1)C[C@@H]1CCCN1C(=O)[C@@H](NC(=O)[C@H](C)NC)C(C)(C)C)C(C)(C)C [Compound 31] | reduced | < 10 nM | < 10 nM | potentiated TRAIL efficacy [3]: approximately 2 logs; decrease in MTT signal in fibers from treated mice [5]: 70%
